Each structure is given as a SMILES string.

Common to all, as to test: Kinase Selectivity Assay (CEREP, HTRF)
Holding throughout (assay type): biochemical

One test concerns the target T1, FLT-3 kinase (Homo sapiens, UniProt P36888).
T1 sequence (P36888 27-993): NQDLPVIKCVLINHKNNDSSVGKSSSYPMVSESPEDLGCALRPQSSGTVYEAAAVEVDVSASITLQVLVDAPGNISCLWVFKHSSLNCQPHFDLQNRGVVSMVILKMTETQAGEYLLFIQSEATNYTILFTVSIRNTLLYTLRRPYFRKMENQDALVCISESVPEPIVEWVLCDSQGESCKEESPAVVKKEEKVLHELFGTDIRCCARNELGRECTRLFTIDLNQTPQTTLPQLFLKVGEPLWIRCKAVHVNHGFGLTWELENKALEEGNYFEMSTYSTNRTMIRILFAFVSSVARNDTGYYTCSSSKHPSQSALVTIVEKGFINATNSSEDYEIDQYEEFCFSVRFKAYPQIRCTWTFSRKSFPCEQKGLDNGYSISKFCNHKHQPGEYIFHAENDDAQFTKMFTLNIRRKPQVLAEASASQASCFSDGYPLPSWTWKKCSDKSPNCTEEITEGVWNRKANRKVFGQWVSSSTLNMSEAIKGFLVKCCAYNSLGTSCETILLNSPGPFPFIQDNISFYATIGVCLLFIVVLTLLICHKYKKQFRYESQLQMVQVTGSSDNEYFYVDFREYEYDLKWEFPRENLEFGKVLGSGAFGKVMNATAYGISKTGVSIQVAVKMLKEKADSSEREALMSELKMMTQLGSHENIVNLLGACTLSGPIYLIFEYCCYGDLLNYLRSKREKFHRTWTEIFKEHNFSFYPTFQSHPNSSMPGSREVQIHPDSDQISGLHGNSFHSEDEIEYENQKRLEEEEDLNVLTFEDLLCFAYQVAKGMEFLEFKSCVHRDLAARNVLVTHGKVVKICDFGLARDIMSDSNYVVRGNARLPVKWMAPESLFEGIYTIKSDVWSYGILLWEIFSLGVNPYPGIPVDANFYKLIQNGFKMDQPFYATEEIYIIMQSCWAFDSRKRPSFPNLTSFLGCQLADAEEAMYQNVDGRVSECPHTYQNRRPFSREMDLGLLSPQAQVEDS
As to conditions: read-out: % Inhibition at 10 μM Concentration, FLT-3. As to the method: (§1) kinase, ROCK2, RSK2, Src kinase, Syk, and TRKA. The % Inhibition was determined

For the next test, the target named is IGF1R kinase (Homo sapiens, UniProt P08069). As to conditions: read-out: % Inhibition at 10 μM Concentration, IGF1R. The protocol:
as §1

For another test, the target named is T2, FLT-1 kinase (VEGFR1) (Homo sapiens, UniProt P17948).
T2 construct: CEREP, France (ran the assays)
As to conditions: read-out: % Inhibition at 10 μM Concentration, FLT-1 (VEGFR1). As to the method: as §1

A further test deals with T3, CDK2 (cycE) (Homo sapiens, UniProt P24941).
T3 construct: CEREP, France (ran the assays)
The following applies: read-out: % Inhibition at 10 μM Concentration, CDK2 (cycE). The protocol:
as §1

The target of the next test is MAPKAPK2 (Homo sapiens, UniProt P49137). As to conditions: read-out: % Inhibition at 10 μM Concentration, MAPKAPK2. As to the method:
as §1

A further test deals with T4, c-Met kinase (Homo sapiens, UniProt P08581).
T4 construct: CEREP, France (ran the assays)
As to conditions: read-out: % Inhibition at 10 μM Concentration, c-Met. As to the method: as §1

The next test addresses T5, Brk (Homo sapiens, UniProt Q13882).
T5 construct: CEREP, France (ran the assays)
The following applies: read-out: % Inhibition at 10 μM Concentration, Brk. As to the method: as §1

The next test addresses ROCK2 (Homo sapiens, UniProt O75116). The following applies: read-out: % Inhibition at 10 μM Concentration, ROCK2. As to the method:
as §1

The next test deals with MEK1/MAP2K1 (Homo sapiens, UniProt Q02750). The following applies: read-out: % Inhibition at 10 μM Concentration, MEK1/MAP2K1. As to the method:
as §1

The target in a further test is Ret (Homo sapiens, UniProt P07949). As to conditions: read-out: % Inhibition at 10 μM Concentration, Ret. As to the method:
as §1

In another test the target is T6, ERK2 (P42mapk) (Homo sapiens, UniProt P28482).
T6 construct: CEREP, France (ran the assays)
The following applies: read-out: % Inhibition at 10 μM Concentration, ERK (P42mapk). The protocol: as §1

The target in another test is T7, PDK1 (Homo sapiens, UniProt O15530).
T7 sequence (O15530 1-556): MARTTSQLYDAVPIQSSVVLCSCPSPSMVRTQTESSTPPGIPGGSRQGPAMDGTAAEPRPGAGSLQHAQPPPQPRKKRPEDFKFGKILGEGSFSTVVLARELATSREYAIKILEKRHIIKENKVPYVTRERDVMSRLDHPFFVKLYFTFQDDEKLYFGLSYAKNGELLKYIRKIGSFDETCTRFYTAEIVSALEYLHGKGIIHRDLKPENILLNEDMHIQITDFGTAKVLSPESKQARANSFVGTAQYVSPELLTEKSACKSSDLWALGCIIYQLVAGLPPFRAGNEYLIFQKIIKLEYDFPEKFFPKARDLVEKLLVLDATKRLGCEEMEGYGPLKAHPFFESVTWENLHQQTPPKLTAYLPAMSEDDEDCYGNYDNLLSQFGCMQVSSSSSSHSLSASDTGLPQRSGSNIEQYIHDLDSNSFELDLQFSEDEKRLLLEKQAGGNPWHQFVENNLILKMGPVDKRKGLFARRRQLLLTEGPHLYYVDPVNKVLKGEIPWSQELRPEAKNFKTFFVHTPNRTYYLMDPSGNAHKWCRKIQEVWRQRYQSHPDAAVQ
As to conditions: read-out: % Inhibition at 10 μM Concentration, PDK1. As to the method:
as §1

The next test addresses PKCa (Homo sapiens, UniProt P17252). As to conditions: read-out: % Inhibition at 10 μM Concentration, PKCalpha. As to the method: as §1
The target of another test is Src kinase (Homo sapiens, UniProt P12931). The following applies: read-out: % Inhibition at 10 μM Concentration, Src. The protocol:
as §1

For the next test, the target named is JNK 2 (Homo sapiens, UniProt P45984). The following applies: read-out: % Inhibition at 10 μM Concentration, JNK 2. As to the method: as §1
The target of a further test is PKA (Homo sapiens, UniProt P17612). As to conditions: read-out: % Inhibition at 10 μM Concentration, PKA. As to the method: as §1

Chain of MAPKAPK2 (P49137 whole entry): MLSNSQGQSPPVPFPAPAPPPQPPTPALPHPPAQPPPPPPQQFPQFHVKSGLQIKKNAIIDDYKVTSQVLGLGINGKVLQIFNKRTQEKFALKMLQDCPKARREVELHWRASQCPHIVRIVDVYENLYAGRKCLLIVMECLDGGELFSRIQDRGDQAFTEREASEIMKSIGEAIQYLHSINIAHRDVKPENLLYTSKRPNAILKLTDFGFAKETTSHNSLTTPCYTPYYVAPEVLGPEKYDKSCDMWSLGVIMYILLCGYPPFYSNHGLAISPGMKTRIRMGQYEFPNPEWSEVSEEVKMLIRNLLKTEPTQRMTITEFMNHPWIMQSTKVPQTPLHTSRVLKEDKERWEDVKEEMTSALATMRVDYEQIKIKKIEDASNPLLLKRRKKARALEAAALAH
T6 sequence (P28482 whole entry): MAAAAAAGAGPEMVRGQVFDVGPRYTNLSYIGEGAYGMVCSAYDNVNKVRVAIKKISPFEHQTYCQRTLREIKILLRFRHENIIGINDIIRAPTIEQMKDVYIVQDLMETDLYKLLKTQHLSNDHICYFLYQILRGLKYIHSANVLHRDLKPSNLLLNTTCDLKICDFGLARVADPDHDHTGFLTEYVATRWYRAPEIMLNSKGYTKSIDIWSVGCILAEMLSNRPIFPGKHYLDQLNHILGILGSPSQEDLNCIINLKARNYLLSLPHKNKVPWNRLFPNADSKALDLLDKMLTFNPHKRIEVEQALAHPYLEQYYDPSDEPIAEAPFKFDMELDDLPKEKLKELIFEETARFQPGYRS
T2 sequence (P17948 27-1338): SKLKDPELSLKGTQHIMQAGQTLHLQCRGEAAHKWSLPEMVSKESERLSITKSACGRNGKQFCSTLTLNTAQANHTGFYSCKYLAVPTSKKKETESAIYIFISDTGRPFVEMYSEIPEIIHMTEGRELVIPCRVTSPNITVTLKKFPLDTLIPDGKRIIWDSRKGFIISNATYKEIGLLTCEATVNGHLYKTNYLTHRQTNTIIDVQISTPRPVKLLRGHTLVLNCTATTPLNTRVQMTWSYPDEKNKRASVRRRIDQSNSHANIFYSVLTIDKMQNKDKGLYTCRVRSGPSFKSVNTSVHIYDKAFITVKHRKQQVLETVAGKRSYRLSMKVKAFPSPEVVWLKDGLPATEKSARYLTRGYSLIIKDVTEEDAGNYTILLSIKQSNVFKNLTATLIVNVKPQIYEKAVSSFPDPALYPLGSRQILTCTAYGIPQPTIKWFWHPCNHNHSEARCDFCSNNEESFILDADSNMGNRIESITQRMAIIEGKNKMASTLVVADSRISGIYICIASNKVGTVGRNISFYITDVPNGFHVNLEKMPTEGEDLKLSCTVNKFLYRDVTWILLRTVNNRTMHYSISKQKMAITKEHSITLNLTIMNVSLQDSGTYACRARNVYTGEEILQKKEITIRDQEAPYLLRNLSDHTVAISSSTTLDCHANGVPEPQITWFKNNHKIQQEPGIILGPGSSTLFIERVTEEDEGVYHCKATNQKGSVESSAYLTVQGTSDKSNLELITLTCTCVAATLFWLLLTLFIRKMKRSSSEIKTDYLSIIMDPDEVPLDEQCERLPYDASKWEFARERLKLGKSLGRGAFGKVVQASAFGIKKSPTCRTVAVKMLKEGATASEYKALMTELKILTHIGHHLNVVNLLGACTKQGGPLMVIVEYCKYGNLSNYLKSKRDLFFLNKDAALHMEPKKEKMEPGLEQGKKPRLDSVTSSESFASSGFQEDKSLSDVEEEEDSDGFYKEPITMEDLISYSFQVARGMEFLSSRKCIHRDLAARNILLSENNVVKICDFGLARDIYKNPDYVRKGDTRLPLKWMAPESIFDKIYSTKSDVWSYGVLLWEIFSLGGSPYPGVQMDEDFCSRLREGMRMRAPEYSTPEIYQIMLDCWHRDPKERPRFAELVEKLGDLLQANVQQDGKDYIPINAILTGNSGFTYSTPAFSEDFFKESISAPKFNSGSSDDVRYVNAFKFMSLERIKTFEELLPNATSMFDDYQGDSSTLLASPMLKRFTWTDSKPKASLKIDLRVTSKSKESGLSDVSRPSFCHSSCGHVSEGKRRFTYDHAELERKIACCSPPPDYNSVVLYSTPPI
Chain of Ret (P07949 29-1114): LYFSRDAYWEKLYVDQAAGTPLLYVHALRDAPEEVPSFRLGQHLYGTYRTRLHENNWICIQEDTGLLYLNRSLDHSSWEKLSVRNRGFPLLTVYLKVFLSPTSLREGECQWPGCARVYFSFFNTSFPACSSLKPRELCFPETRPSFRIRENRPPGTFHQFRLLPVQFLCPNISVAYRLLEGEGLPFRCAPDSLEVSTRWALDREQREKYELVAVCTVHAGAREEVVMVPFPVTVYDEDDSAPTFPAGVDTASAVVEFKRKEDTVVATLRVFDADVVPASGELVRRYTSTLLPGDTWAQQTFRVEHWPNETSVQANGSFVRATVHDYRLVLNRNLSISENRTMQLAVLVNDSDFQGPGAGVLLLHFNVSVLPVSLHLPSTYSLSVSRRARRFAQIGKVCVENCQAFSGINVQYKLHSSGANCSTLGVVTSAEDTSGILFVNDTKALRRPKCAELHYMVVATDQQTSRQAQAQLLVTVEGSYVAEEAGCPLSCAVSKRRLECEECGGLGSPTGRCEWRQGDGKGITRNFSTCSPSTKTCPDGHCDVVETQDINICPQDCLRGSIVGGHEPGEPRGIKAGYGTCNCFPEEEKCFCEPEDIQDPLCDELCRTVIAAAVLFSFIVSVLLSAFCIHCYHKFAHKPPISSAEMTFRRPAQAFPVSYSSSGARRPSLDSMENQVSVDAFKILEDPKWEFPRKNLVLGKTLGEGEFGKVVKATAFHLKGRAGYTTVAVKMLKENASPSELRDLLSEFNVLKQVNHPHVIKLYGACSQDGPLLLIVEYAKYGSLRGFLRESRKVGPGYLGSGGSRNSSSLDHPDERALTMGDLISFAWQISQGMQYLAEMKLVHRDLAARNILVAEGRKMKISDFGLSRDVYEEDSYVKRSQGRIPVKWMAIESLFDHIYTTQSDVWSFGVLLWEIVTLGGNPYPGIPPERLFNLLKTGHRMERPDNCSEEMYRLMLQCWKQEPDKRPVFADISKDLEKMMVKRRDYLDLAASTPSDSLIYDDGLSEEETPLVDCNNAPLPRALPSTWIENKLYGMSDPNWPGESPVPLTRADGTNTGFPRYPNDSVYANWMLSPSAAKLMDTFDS
T4 sequence (P08581 25-1390): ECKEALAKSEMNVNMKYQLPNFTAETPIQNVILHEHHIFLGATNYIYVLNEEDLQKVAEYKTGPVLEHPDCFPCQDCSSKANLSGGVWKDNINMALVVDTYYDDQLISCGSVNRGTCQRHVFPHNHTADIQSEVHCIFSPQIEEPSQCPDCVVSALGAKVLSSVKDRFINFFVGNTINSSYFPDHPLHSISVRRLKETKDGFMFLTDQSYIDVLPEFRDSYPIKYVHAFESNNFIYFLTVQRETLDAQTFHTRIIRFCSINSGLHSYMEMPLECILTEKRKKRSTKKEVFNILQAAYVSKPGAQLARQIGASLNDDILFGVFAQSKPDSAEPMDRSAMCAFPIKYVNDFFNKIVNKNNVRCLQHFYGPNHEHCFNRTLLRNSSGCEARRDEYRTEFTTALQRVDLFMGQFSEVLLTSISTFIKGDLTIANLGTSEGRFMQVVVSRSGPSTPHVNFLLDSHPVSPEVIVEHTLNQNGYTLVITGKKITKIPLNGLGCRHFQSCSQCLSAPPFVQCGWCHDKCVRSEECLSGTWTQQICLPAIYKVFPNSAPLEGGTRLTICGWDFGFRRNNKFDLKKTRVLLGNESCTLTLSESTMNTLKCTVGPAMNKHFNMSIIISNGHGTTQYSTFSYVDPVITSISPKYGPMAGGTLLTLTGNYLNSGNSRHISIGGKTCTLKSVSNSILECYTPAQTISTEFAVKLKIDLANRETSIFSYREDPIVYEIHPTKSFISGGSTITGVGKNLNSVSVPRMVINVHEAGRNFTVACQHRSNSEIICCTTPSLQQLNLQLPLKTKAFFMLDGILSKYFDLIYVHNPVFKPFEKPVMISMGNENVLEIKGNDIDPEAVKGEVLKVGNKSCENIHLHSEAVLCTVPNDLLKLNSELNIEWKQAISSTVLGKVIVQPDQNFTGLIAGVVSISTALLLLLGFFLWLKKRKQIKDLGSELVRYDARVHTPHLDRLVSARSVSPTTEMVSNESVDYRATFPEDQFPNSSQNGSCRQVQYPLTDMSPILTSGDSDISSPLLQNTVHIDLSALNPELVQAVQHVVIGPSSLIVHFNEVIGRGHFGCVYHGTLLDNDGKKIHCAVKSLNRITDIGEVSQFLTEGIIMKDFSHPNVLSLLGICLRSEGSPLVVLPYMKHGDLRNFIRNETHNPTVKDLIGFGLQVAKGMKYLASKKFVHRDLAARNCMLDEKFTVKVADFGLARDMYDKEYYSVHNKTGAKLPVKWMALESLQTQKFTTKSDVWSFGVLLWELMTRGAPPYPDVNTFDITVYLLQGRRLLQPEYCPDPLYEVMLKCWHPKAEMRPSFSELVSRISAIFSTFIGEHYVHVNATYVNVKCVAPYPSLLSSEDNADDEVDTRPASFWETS
T5 sequence (Q13882 whole entry): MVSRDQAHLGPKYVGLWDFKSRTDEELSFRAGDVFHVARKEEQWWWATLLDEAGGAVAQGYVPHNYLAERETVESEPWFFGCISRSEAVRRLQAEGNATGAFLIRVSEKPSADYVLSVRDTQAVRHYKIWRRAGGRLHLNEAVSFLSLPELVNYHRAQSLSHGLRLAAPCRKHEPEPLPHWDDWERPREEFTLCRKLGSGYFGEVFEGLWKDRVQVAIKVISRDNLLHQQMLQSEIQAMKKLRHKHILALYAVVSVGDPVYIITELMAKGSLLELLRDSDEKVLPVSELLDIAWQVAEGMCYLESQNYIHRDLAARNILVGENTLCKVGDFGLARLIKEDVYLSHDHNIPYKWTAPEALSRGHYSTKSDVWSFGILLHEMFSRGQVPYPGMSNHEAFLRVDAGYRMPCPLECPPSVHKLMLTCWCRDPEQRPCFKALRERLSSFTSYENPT

On to `O=C1Nc2ccccc2C1=Cc1ccc2c(/C=C/c3ccccn3)n[nH]c2c1` (mixture of isomers) [Example A41, (E and Z)-3-((3-((E)-2-(pyridin-2-yl)vinyl)-1H-indazol-6-yl)methylene)indolin-2-one], for which the inhibition at 10 µM at FLT-3 kinase came out at 100%; at IGF1R kinase, 43%; on FLT-1 kinase (VEGFR1), 99%; at CDK2 (cycE), 8%; on MAPKAPK2, 0%; at c-Met kinase, 35%. Moreover, the inhibition at 10 µM was 40% at Brk; -3% on ROCK2; 46% at MEK1/MAP2K1; 98% at Ret; 14% at ERK2 (P42mapk); 4% on PDK1. The inhibition at 10 µM is 2% on PKCa, 59% at Src kinase, 52% on JNK 2 and -4% on PKA.
For the compound `COc1ccc2c(c1)C(=Cc1ccc3c(-c4ccc(N5CCN(C)CC5)nc4)n[nH]c3c1)C(=O)N2` (mixture of isomers) [Example A97, (E and Z)-5-methoxy-3-((3-(6-(4-methylpiperazin-1-yl)pyridin-3-yl)-1H-indazol-6-yl)methylene)indolin-2-one], the inhibition at 10 µM on FLT-3 kinase came to 100%; at IGF1R kinase, 4%; at FLT-1 kinase (VEGFR1) it was 73%; on CDK2 (cycE), 3%; at MAPKAPK2, 4%; at c-Met kinase, 28%. The inhibition at 10 µM at Brk was 7%; on ROCK2, 22%; on MEK1/MAP2K1, 9%; at Ret it was 93%; at ERK2 (P42mapk) it was -9%; at PDK1, 73%. Moreover, the inhibition at 10 µM on PKCa came out at 9%; at Src kinase, 24%; at JNK 2, 14%; at PKA, 0%.
Turning to `O=C1Nc2ccccc2/C1=C\c1ccc2[nH]nnc2c1` [Example A1, (E)-3-((1H-benzo[d][1,2,3]triazol-5-yl)methylene)indolin-2-one], the inhibition at 10 µM was 93% on FLT-3 kinase; 7% on IGF1R kinase; 0% on FLT-1 kinase (VEGFR1); 10% on CDK2 (cycE); 6% on MAPKAPK2; -20% at c-Met kinase. Besides, the inhibition at 10 µM was 5% on Brk; 1% on ROCK2; 20% on MEK1/MAP2K1; 67% on Ret; 3% at ERK2 (P42mapk); -3% on PDK1. In addition, the inhibition at 10 µM on PKCa is 9%; on Src kinase it was 10%; at JNK 2, 13%; on PKA, 9%.
`O=C1Nc2ccccc2/C1=C\c1ccc2cn[nH]c2c1` [Example A5, (E)-3-((1H-indazol-6-yl)methylene)indolin-2-one]: the inhibition at 10 µM on FLT-3 kinase is 76%; on IGF1R kinase, -4%; at FLT-1 kinase (VEGFR1), 16%; at CDK2 (cycE), 16%; on MAPKAPK2, 0%; on c-Met kinase, 2%. Also, the inhibition at 10 µM on Brk is -6%; at ROCK2, 3%; at MEK1/MAP2K1 it was 3%; at Ret, 41%; on ERK2 (P42mapk), 0%; on PDK1, 2%. For the same compound, the inhibition at 10 µM at PKCa is 0%; at Src kinase, -9%; on JNK 2, 14%; on PKA, -1%.
Take `O=C1Nc2ccccc2/C1=C\c1ccc2c(/C=C/c3ccccc3Cl)n[nH]c2c1` [Example A60, (E)-3-((3-((E)-2-chlorostyryl)-1H-indazol-6-yl)methylene)indolin-2-one]: the inhibition at 10 µM turned out to be 10% on FLT-3 kinase; 81% at IGF1R kinase; 42% at FLT-1 kinase (VEGFR1); 5% at CDK2 (cycE); 19% on MAPKAPK2; 0% at c-Met kinase. The inhibition at 10 µM on Brk was 4%; on ROCK2, -1%; on MEK1/MAP2K1, 16%; on Ret, 33%; at ERK2 (P42mapk), 2%; on PDK1 it was 1%. Besides, the inhibition at 10 µM is -1% on PKCa, 0% on Src kinase, 3% at JNK 2 and 7% at PKA.

The values are drawn from patent US8765748B2, “Indazolyl, benzimidazolyl, benzotriazolyl substituted indolinone derivatives as kinase inhibitors useful in the treatment of cancer” (University Health Network, priority 2007, dated 2014).
